Counter-ions that a name gives are not always drawn. Like-named read-outs stand apart in the source and are kept apart here.
Experiments:
[1] = tested on: phosphorylation of ERK (Thr202/Tyr204); experiment: Test Example 2: ERK phosphorylation inhibition action in AsPC-1, Cell ELISA; assay type: cell-based, human; details: AsPC-1 cells, 0% = 1 μM trametinib
Method in brief: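 AsPC-1 cells (KRAS G12D) treated 24 h with compound (6 points, 10 μM to 3.0 nM final) in RPMI 1640/10% FBS. Fixed with glyoxal; pERK Thr202/Tyr204 detected by In-Cell ELISA with 800 nm fluorescence. IC50 by Sigmoid-Emax regression, with DMSO set to 100% and 1 μM trametinib to 0%.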

[2] = tested on: human G12D mutant KRAS-positive pancreatic cancer line AsPC-1; experiment: Test Example 3: non-anchorage-dependent cell growth inhibition, spheroid 3D cell culture; assay type: cell-based; details: AsPC-1 spheroid 3D culture, 6 days, CellTiter Glo 2.0
Method in brief: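 AsPC-1 cells were grown as spheroids (5×10^2 cells/well, low-adhesion round-bottom plates). Next day they were treated with compound at 6 final concentrations from 10 μM to 3.0 nM for 6 days at 37 °C, and viability was read by CellTiter Glo luminescence. IC50 came from Sigmoid-Emax nonlinear regression, normalized between DMSO-treated and cell-free wells.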

[3] = Homo sapiens, ASPC1, 24 h, read-out: IC50
[4] = Homo sapiens, ASPC1, 144 h, read-out: IC50

`Cc1ncsc1-c1ccc([C@H](CO)NC(=O)[C@@H]2C[C@@H](O)CN2C(=O)C(C(C)C)n2cc(-c3ccc(COc4c(-c5c(C)c(F)cc6[nH]ncc56)c(C5CC5)cc5c(N6C[C@@H]7C[C@H]6CN7)nc(OC6CCOCC6)nc45)cc3)cn2)cc1` (single isomer, unassigned) [Example 11] gave an IC50 ([1]; Homo sapiens, ASPC1, 24 h) of 39 nM and an IC50 ([2]; Homo sapiens, ASPC1, 144 h) of 128 nM.
`Cc1ncsc1-c1ccc([C@H](CO)NC(=O)[C@@H]2C[C@@H](O)CN2C(=O)[C@H](C(C)C)n2cc(-c3ccc(COc4c(-c5c(C)c(F)cc6[nH]ncc56)c(C5CC5)cc5c(N6C[C@@H]7C[C@H]6CN7)nc(NCCO)nc45)cc3)nn2)cc1` [Example 66] showed an IC50 [1, 3] of 114 nM and an IC50 [2, 4] of 360 nM.
Work on `Cc1c(F)cc2[nH]ncc2c1-c1c(C2CC2)cc2c(N3C[C@@H]4C[C@H]3CN4)nc(OC3CCOCC3)nc2c1OCc1ccc(-c2cn([C@H](C(=O)N3C[C@H](O)C[C@H]3C(=O)N[C@@H](CO)c3ccc(-n4ccnc4C)cc3)C(C)C)nn2)cc1` [Example 69] yielded an IC50 [1, 3] of 17 nM and an IC50 [2, 4] of 64 nM.
Molecule `Cc1ncsc1-c1ccc([C@H](CO)NC(=O)[C@@H]2C[C@@H](O)CN2C(=O)[C@H](C(C)C)n2cc(-c3ccc(COc4c(-c5c(C)c(F)cc6[nH]ncc56)c(C5CC5)cc5c(N6C[C@@H]7C[C@H]6CN7)nc(OC6CCOCC6)nc45)cc3F)nn2)cc1` [Example 49, (4R)-1-[(2S)-2-(4-{4-[({6-cyclopropyl-4-[(1S,4S)-2,5-diazabicyclo[2.2.1]heptan-2-yl]-7-(6-fluoro-5-methyl-1H-indazol-4-yl)-2-[(oxan-4-yl)oxy]quinazolin-8-yl}oxy)methyl]-2-fluorophenyl}-1H-1,2,3-triazol-1-yl)-3-methylbutanoyl]-4-hydroxy-N-{(1R)-2-hydroxy-1-[4-(4-methyl-1,3-thiazol-5-yl)phenyl]ethyl}-L-prolinamide] has an IC50 ([1]; Homo sapiens, ASPC1, 24 h) of 21 nM and an IC50 ([2]; Homo sapiens, ASPC1, 144 h) of 46 nM.
`Cc1ncsc1-c1ccc([C@H](CO)NC(=O)[C@@H]2C[C@@H](O)CN2C(=O)[C@H](C(C)C)n2cc(-c3ccc(COc4c(-c5c(C)c(F)cc6[nH]ncc56)c(C5CC5)cc5c(N6C[C@@H]7C[C@H]6CN7)nc(OC[C@H](C)N6CCCC6)nc45)cc3)nn2)cc1` [Example 64] gave an IC50 ([1]; Homo sapiens, ASPC1, 24 h) of 80 nM and an IC50 ([2]; Homo sapiens, ASPC1, 144 h) of 245 nM.
Work on `CCn1nccc1-c1ccc([C@H](CO)NC(=O)[C@@H]2C[C@@H](O)CN2C(=O)[C@H](C(C)C)n2cc(-c3ccc(COc4c(-c5c(C)c(F)cc6[nH]ncc56)c(C5CC5)cc5c(N6C[C@@H]7C[C@H]6CN7)nc(OC[C@H](C)OC)nc45)cc3)nn2)cc1` [Example 70] yielded an IC50 [1, 3] of 12 nM and an IC50 [2, 4] of 21 nM.
Molecule `Cc1c(F)cc2[nH]ncc2c1-c1c(C2CC2)cc2c(N3C[C@@H]4C[C@H]3CN4)nc(OC3CCOCC3)nc2c1OCc1ccc(-c2cn([C@H](C(=O)N3C[C@H](O)C[C@H]3C(=O)N[C@@H](CO)c3ccc(-c4scnc4CO)cc3)C(C)C)nn2)cc1` [Example 18, (4R)-1-[(2S)-2-(4-{4-[({6-cyclopropyl-4-[(1S,4S)-2,5-diazabicyclo[2.2.1]heptan-2-yl]-7-(6-fluoro-5-methyl-1H-indazol-4-yl)-2-[(oxan-4-yl)oxy]quinazolin-8-yl}oxy)methyl]phenyl}-1H-1,2,3-triazol-1-yl)-3-methylbutanoyl]-4-hydroxy-N-[(1R)-2-hydroxy-1-{4-[4-(hydroxymethyl)-1,3-thiazol-5-yl]phenyl}ethyl]-L-prolinamide n hydrochloride] has an IC50 [1, 3] of 28 nM and an IC50 [2, 4] of 70 nM.
`COCCN1CC[C@H](Oc2nc(N3C[C@@H]4C[C@H]3CN4)c3cc(C4CC4)c(-c4c(C)c(F)cc5[nH]ncc45)c(OCc4ccc(-c5cn([C@H](C(=O)N6C[C@H](O)C[C@H]6C(=O)N[C@@H](CO)c6ccc(-c7scnc7C)cc6)C(C)C)nn5)cc4)c3n2)C1` [Example 32] gave an IC50 ([1]; Homo sapiens, ASPC1, 24 h) of 92 nM and an IC50 ([2]; Homo sapiens, ASPC1, 144 h) of 186 nM.
`Cc1c(F)cc2[nH]ncc2c1-c1c(C2CC2)cc2c(N3C[C@@H]4C[C@H]3CN4)nc(OC3CCOCC3)nc2c1OCc1ccc(-c2cn([C@H](C(=O)N3C[C@H](O)C[C@H]3C(=O)N[C@@H](CO)c3cccc(F)c3)C(C)C)nn2)cc1` [Example 63] gave an IC50 ([1]; Homo sapiens, ASPC1, 24 h) of 72 nM and an IC50 ([2]; Homo sapiens, ASPC1, 144 h) of 133 nM.
`Cc1ncsc1-c1ccc([C@H](CO)NC(=O)[C@@H]2C[C@@H](O)CN2C(=O)[C@H](C(C)C)n2cc(-c3ccc(COc4c(-c5c(C)c(F)cc6[nH]ncc56)c(C5CC5)cc5c(N6C[C@@H]7C[C@H]6CN7)nc(O[C@@H]6CCN(CC(F)F)C6)nc45)cc3)nn2)cc1` [Example 34] showed an IC50 ([1]; Homo sapiens, ASPC1, 24 h) of 26 nM and an IC50 ([2]; Homo sapiens, ASPC1, 144 h) of 33 nM.
Molecule `COC[C@H](C)Oc1nc(N2C[C@@H]3C[C@H]2CN3)c2cc(C3CC3)c(-c3c(C)c(F)cc4[nH]ncc34)c(OCc3ccc(-c4cn([C@H](C(=O)N5C[C@H](O)C[C@H]5C(=O)N[C@@H](CO)c5ccc(-c6scnc6C)cc5)C(C)C)nn4)cc3)c2n1` [Example 54] has an IC50 ([1]; Homo sapiens, ASPC1, 24 h) of 18 nM and an IC50 ([2]; Homo sapiens, ASPC1, 144 h) of 24 nM.
With `Cc1ncsc1-c1ccc([C@H](C)NC(=O)[C@@H]2C[C@@H](O)CN2C(=O)[C@H](C(C)C)n2cc(-c3ccc(COc4c(-c5c(C)c(F)cc6[nH]ncc56)c(C5CC5)cc5c(N6C[C@@H]7C[C@H]6CN7)nc(OC6CCOCC6)nc45)cc3)nn2)cc1` [Example 9] the IC50 ([1]; Homo sapiens, ASPC1, 24 h) was 18 nM and the IC50 ([2]; Homo sapiens, ASPC1, 144 h) was 96 nM.
Molecule `Cc1ncsc1-c1ccc([C@H](CO)NC(=O)[C@@H]2C[C@@H](O)CN2C(=O)[C@H](C(C)C)n2cc(-c3ccc(COc4c(-c5c(C)c(F)cc6[nH]ncc56)c(C5CC5)cc5c(N6C[C@@H]7C[C@H]6CN7)nc(OC6CCN(C7COC7)CC6)nc45)cc3)nn2)cc1` [Example 24] has an IC50 ([1]; Homo sapiens, ASPC1, 24 h) of 25 nM and an IC50 ([2]; Homo sapiens, ASPC1, 144 h) of 55 nM.
Molecule `Cc1ncsc1-c1ccc([C@H](CO)NC(=O)[C@@H]2C[C@@H](O)CN2C(=O)[C@H](C(C)C)N2Cc3cc(COc4c(-c5c(C)c(F)cc6[nH]ncc56)c(C5CC5)cc5c(N6C[C@@H]7C[C@H]6CN7)nc(OC6CCOCC6)nc45)ccc3C2=O)cc1` [Example 4] has an IC50 ([1]; Homo sapiens, ASPC1, 24 h) of 522 nM and an IC50 ([2]; Homo sapiens, ASPC1, 144 h) of 670 nM.
For `Cc1ncsc1-c1ccc([C@H](CO)NC(=O)[C@@H]2C[C@@H](O)CN2C(=O)[C@H](C2CC2)n2cc(-c3ccc(COc4c(-c5c(C)c(F)cc6[nH]ncc56)c(C5CC5)cc5c(N6C[C@@H]7C[C@H]6CN7)nc(OC6CCOCC6)nc45)cc3)nn2)cc1` [Example 73], the IC50 [1, 3] was 133 nM and the IC50 [2, 4] was 112 nM.
`Cc1c(F)cc2[nH]ncc2c1-c1c(C2CC2)cc2c(N3C[C@@H]4C[C@H]3CN4)nc(OC3CCOCC3)nc2c1OCc1ccc(-c2cn([C@H](C(=O)N3C[C@H](O)C[C@H]3C(=O)N[C@@H](CO)c3ccc(F)cc3)C(C)C)nn2)cc1` [Example 13] was tested, and the IC50 ([1]; Homo sapiens, ASPC1, 24 h) was 29 nM and the IC50 ([2]; Homo sapiens, ASPC1, 144 h) was 74 nM.
`CCc1ccncc1Oc1nc(N2C[C@@H]3C[C@H]2CN3)c2cc(C3CC3)c(-c3c(C)c(F)cc4[nH]ncc34)c(OCc3ccc(-c4cn([C@H](C(=O)N5C[C@H](O)C[C@H]5C(=O)N[C@@H](CO)c5ccc(-c6scnc6C)cc5)C(C)C)nn4)cc3)c2n1` [Example 25] was tested, and the IC50 ([1]; Homo sapiens, ASPC1, 24 h) was 15 nM and the IC50 ([2]; Homo sapiens, ASPC1, 144 h) was 66 nM.
`CO[C@@H](C)COc1nc(N2C[C@@H]3C[C@H]2CN3)c2cc(C3CC3)c(-c3c(C)c(F)cc4[nH]ncc34)c(OCc3ccc(-c4cn([C@H](C(=O)N5C[C@H](O)C[C@H]5C(=O)N[C@@H](CO)c5ccc(-n6ccnc6C)cc5)C(C)C)nn4)cc3)c2n1` [Example 71] was tested, and the IC50 [1, 3] was 38 nM and the IC50 [2, 4] was 51 nM.
`Cc1ncsc1-c1ccc([C@H](CO)NC(=O)[C@@H]2C[C@@H](O)CN2C(=O)[C@H](C(C)C)n2cc(-c3ccc(COc4c(-c5c(C)c(F)cc6[nH]ncc56)c(C5CC5)cc5c(N6C[C@@H]7C[C@H]6CN7)nc(OC[C@H]6CCOC6)nc45)cc3)nn2)cc1` [Example 52] gave an IC50 ([1]; 24 hours) of 11 nM and an IC50 [2] of 31 nM.
`Cc1ncsc1-c1ccc([C@H](CO)NC(=O)[C@@H]2C[C@@H](O)CN2C(=O)[C@H](C(C)C)n2cc(-c3ccc(COc4c(-c5c(C)c(F)cc6[nH]ncc56)c(C5CC5)cc5c(N6C[C@@H]7C[C@H]6CN7)nc(OC6CCOCC6)nc45)cc3)nn2)nc1` [Example 35] was tested, and the IC50 ([1]; Homo sapiens, ASPC1, 24 h) was 55 nM and the IC50 ([2]; Homo sapiens, ASPC1, 144 h) was 43 nM.
Work on `Cc1c(F)cc2[nH]ncc2c1-c1c(C2CC2)cc2c(N3C[C@@H]4C[C@H]3CN4)nc(OC3CCOCC3)nc2c1OCc1ccc(-c2cn([C@H](C(=O)N3C[C@H](O)C[C@H]3C(=O)N[C@@H](CO)c3ccccc3F)C(C)C)nn2)cc1` [Example 30] yielded an IC50 ([1]; Homo sapiens, ASPC1, 24 h) of 185 nM and an IC50 ([2]; Homo sapiens, ASPC1, 144 h) of 323 nM.

— patent US20250340561A1, “QUINAZOLINE COMPOUND FOR INDUCING DEGRADATION OF G12D MUTANT KRAS PROTEIN” (Astellas Pharma Inc., priority 2021, published 2025)
